Test results reported in paper PMC5540946, “Stress-Driven Discovery of Novel Cryptic Antibiotics from a Marine Fungus Penicillium sp. BB1122” (Frontiers in Microbiology, 2017).
Converted amounts (≈) assume the structure as drawn. Where two headings read alike, the source gives them in different places.

What was measured:
Format in all cases: cell-based
[1] = system: P. aeruginosa [CMCC(B)10104]; experiment: Broth dilution antibacterial assay (MIC, MBC by subculture) against P. aeruginosa; conditions: Pseudomonas aeruginosa; for MIC: 18 h, broth dilution, 37°C, triplicate; for MBC: lowest concentration killing 99.9% of original inoculum
Description: (§1) The conventional broth dilution assay was used to evaluate the antibacterial activities. Three clinical pathogens namely MRSA, P. aeruginosa [CMCC(B)10104], and K. pneumoniae [CMCC(B)46117] were cultured and left overnight to grow. Each pathogenic culture was then diluted in 0.9% saline to an inoculum density of 5 × 10^5 cfu by comparison with a McFarland standard. Tetracycline was dissolved in Mueller–Hinton broth with a starting concentration of 512 μg/mL and was used as positive control whereas methanol was used as negative control. A total of 125 μL of MHB was distributed into the 96-well plates. A total of 125 μL of the different samples were dispensed into well 1 and serially diluted across the plate. Ultimately, addition of 125 μL of the bacterial inoculum was performed and the plates were incubated at 37°C for 18 h. The bacteriostatic abilities of the compounds were noted as MICs which were done in triplicate. Five milligrams per milliliter of methanolic solution of 3-[4,5-dimethylthiazol-2-yl]-2,5-diphenyltetrazolium bromide (MTT; Lancaster) was used to detect bacterial growth by a change in color from yellow to blue ([Appendino et al., 2008]).
(§2) Ten microliters of broth with no visible growth were taken from the wells and sub-cultured on nutrient agar plates. The negative control consisted of nutrient agar and the inoculum which was then compared with the number of colonies on the agar. The bactericidal abilities of the compounds were noted as MBCs which was equal to the lowest concentration of the samples which killed 99.9% of the original inoculum ([Clinical and Laboratory Standards Institute, 2014]).

[2] = system: K. pneumoniae [CMCC(B)46117]; experiment: Broth dilution antibacterial assay (MIC, MBC by subculture) against K. pneumoniae; conditions: Klebsiella pneumoniae
Description: as §1, §2

[3] = system: methicillin resistant Staphylococcus aureus (MRSA); experiment: Broth dilution antibacterial assay (MIC, MBC by subculture) against MRSA; conditions: for MIC: 18 h
Description: as §1, §2

[4] = system: Human liver cell line LO2; experiment: Cytotoxicity assay (MTT); conditions: normal liver cell line LO2, MTT, triplicate
Description: Human liver cell line LO2 was obtained from the Institute of Biochemistry and Cell Biology (Chinese Academy of Sciences). LO2 cells were maintained in RPMI 1640 containing 10% fetal bovine serum (FBS), 100 units/mL penicillin and 100 units/mL streptomycin. All the cells were grown in a humidified cell incubator with an atmosphere of 5% CO2 at 37°C and subcultured with 0.25% trypsin + 0.02% EDTA. MTT, dimethyl sulfoxide (DMSO), ribonuclease (RNase), propidium iodide (PI), Annexin V-FITC/PI kit were obtained from Sigma. RPMI 1640, DMEM, FBS were purchased from Gibco. Hoechst, trypsin, and the pan caspase inhibitor z-VAD-FMK were obtained from Beyotime Institute of Biotechnology. Compounds were dissolved in DMSO and diluted to the proper concentrations before use, with the concentration of DMSO kept below 0.1% in all assays. Cell viability was measured by the MTT method as previously described, with some modifications ([Jiang et al., 2013]). Briefly, cells were seeded in 96-well microtiter plates at a density of 5 × 10^3 cells/well for 24 h. After drug treatment for the indicated times, cells were incubated with MTT (0.5 mg/mL) for 4 h. The formazan precipitate was dissolved in 150 μL DMSO, and the absorbance was detected at 490 nm with a Sunrise microplate reader (Tecan Group Ltd.). DMSO (0.1%) was used as negative control for all assays. Each test was performed in triplicate.

[5] = broth dilution, 37°C, 18 h, triplicate
[6] = lowest concentration killing 99.9% of original inoculum, read-out: MBC
[7] = lowest concentration killing 99.9% of original inoculum

| Structure (SMILES) | MIC ([1]; read-out: MIC) | MBC ([1]; read-out: MBC) | MIC [2, 5] | MBC [2, 6] | MBC ([3]; Staphylococcus aureus) | MIC ([3]; Staphylococcus aureus) | MIC [1] | MBC [1] | MBC [2, 7] | MBC [3, 7] | MIC [2] | MBC ([2]; read-out: MBC) | IC50 ([4]; Homo sapiens, read-out: IC50) | IC50 [4] | MIC ([3]; broth dilution, 37°C, triplicate) |
| --- | --- | --- | --- | --- | --- | --- | --- | --- | --- | --- | --- | --- | --- | --- | --- |
| COc1cc(=O)oc(C=CC=CC=CC(C)=CC2(C)OC(C)C(C)(O)C2O)c1C (stereo not shown) [Compound 1, Neocitreoviridin] | 4 µg/mL (≈ 9.94 µM) | 8 µg/mL (≈ 19.9 µM) | 64 µg/mL (≈ 159 µM) | 128 µg/mL (≈ 318 µM) | 128 µg/mL (≈ 318 µM) | 64 µg/mL (≈ 159 µM) |  |  |  |  |  |  |  |  |  |
| COc1cc(=O)oc(C=CC=CC=CC(C)=CC2(C)OC(C)C(C)(O)C2O)c1C (stereo not shown) [Compound 2, citreoviridin] |  |  |  |  |  |  | 8 µg/mL (≈ 19.9 µM) | 16 µg/mL (≈ 39.8 µM) | 128 µg/mL (≈ 318 µM) | 128 µg/mL (≈ 318 µM) |  |  |  |  |  |
| COc1cc(=O)oc(/C=C/C=C/C=C/[C@@]2(C)O[C@]3(C)[C@@H](O)[C@@](C)(O[C@@H]3C)[C@@H]2O)c1C [Compound 3, epicitreoviridinol] | 64 µg/mL (≈ 153 µM) | 128 µg/mL (≈ 306 µM) |  |  | 2 µg/mL (≈ 4.78 µM) | 1 µg/mL (≈ 2.39 µM) |  |  |  |  | > 128 µg/mL | > 128 µg/mL |  |  |  |
| COc1cc(=O)oc(/C=C/C=C/C=C/[C@@]2(C)O[C@@]3(C)[C@H](O)[C@](C)(O[C@H]3C)[C@@H]2O)c1C [Compound 4, epiisocitreoviridinol] | 64 µg/mL (≈ 153 µM) | 128 µg/mL (≈ 306 µM) |  |  | 128 µg/mL (≈ 306 µM) | 64 µg/mL (≈ 153 µM) |  |  |  |  | > 128 µg/mL | > 128 µg/mL |  |  |  |
| COc1cc(=O)oc(C=CC=CC=CC2(C)OC3(C)C(C)OC(C)(C2O)C3O)c1C (stereo not shown) [Compound 5, 10Z-isocitreoviridinol] | 8 µg/mL (≈ 19.1 µM) | 16 µg/mL (≈ 38.2 µM) | 64 µg/mL (≈ 153 µM) | 128 µg/mL (≈ 306 µM) | 2 µg/mL (≈ 4.78 µM) | 1 µg/mL (≈ 2.39 µM) |  |  |  |  |  |  |  |  |  |
| COc1cc(=O)oc(/C=C/C=C/C=C/[C@@]2(C)O[C@]3(C)[C@@H](O)[C@@](C)(O[C@@H]3C)[C@H]2O)c1C [Compound 6, citreoviridinol] | 64 µg/mL (≈ 153 µM) | 128 µg/mL (≈ 306 µM) |  |  | 8 µg/mL (≈ 19.1 µM) | 4 µg/mL (≈ 9.56 µM) |  |  |  |  | > 128 µg/mL | > 128 µg/mL |  |  |  |
| COc1cc(=O)oc(C(O)C=CC=CC=C(C)C2OC3(C)C(C)OC2(C)C3O)c1C (stereo not shown) [Compound 7, Penicillstressol] | 4 µg/mL (≈ 9.56 µM) | 8 µg/mL (≈ 19.1 µM) | 64 µg/mL (≈ 153 µM) | 128 µg/mL (≈ 306 µM) | 1 µg/mL (≈ 2.39 µM) | 0.5 µg/mL (≈ 1.19 µM) |  |  |  |  |  |  | > 100 µg/mL |  |  |
| COc1cc(=O)oc(C(O)C=CC=CC=C(C)C2OC3(C)C(C)OC2(C)C3O)c1C (stereo not shown) [Compound 8, Isopenicillstressol] |  |  |  |  |  |  |  | 8 µg/mL (≈ 19.1 µM) | 128 µg/mL (≈ 306 µM) | 1 µg/mL (≈ 2.39 µM) |  |  |  | above 100 μg/mL |  |
| CN(C)[C@@H]1C(O)=C(C(N)=O)C(=O)[C@@]2(O)C(O)=C3C(=O)c4c(O)cccc4[C@@](C)(O)[C@H]3C[C@@H]12 [Tetracycline, reference compound] | 8 µg/mL (≈ 18 µM) | 16 µg/mL (≈ 36 µM) | 64 µg/mL (≈ 144 µM) | 128 µg/mL (≈ 288 µM) | 4 µg/mL (≈ 9 µM) | 2 µg/mL (≈ 4.5 µM) |  |  |  |  |  |  |  |  | around 2 µg/mL |
